Results on 1 compound are retold here after US20100004284A1, “Novel Heterocyclic Compounds as Positive Allosteric Modulators of Metabotropic Glutamate Receptors” (ADDEX PHARMA SA, priority 2005, published 2010).

Usually IC50 stands for the concentration that inhibits the measured activity by half. What is called EC50 is the midpoint of the concentration-response curve.

One assay has as its target T1, mGluR5 (Rattus norvegicus, UniProt P31424).
T1 construct: positive allosteric modulators of mGluR5 receptors in native preparations; endogenous in cells; host or cells: primary cortical astrocytes from Sprague-Dawley rat embryos (E16-19)
In words: mGluR5 binding assay ([3H]-MPEP radioligand binding, rat brain membranes). As to conditions: 3 nM [3H]-MPEP, 1 h at 4° C., read-out: IC50, inhibition of [3H]-MPEP binding. From the text: Activity of compounds of the invention was examined following a radioligand binding technique using whole rat brain and tritiated 2-methyl-6-(phenylethynyl)-pyridine ([^3H]-MPEP) as a ligand following similar methods than those described in Gasparini et al. (2002) Bioorg. Med. Chem. Lett. 12:407-409 and in Anderson et al. (2002) J. Pharmacol. Exp. Ther. 303 (3) 1044-1051.
Cortices were dissected out from brains of 200-300 g Sprague-Dawley rats (Charles River Laboratories, L'Arbresle, France). Tissues were homogenized in 10 volumes (vol/wt) of ice-cold 50 mM HEPES-NaOH (pH 7.4) using a Polytron disrupter (Kinematica AG, Luzern, Switzerland) and centrifuged for 30 min at 40,000 g. (4° C.). […] Protein concentration was determined by the Bradford method (Bio-Rad protein assay, Reinach, Switzerland) with bovine serum albumin as standard.
Membranes were thawed and resuspended in binding buffer containing 20 mM HEPES-NaOH, 3 mM MgCl2, 3 mM CaCl2, 100 mM NaCl, pH 7.4. […] Radioactivity was determined by liquid scintillation spectrometry using a 96-well plate reader (TopCount, Perkin-Elmer, Downers Grove, USA).
The inhibition curves were generated using the Prism GraphPad program (Graph Pad Software Inc, San Diego, USA). […] The mean of IC50 obtained from at least three independent experiments of selected molecules performed in duplicate were calculated.

The target in another assay is T2, rat mGluR5 (Rattus norvegicus, UniProt P31424).
T2 construct: expressed in transfected cells
T2 sequence (P31424 21-1171 isoform P31424-2 limits assumed): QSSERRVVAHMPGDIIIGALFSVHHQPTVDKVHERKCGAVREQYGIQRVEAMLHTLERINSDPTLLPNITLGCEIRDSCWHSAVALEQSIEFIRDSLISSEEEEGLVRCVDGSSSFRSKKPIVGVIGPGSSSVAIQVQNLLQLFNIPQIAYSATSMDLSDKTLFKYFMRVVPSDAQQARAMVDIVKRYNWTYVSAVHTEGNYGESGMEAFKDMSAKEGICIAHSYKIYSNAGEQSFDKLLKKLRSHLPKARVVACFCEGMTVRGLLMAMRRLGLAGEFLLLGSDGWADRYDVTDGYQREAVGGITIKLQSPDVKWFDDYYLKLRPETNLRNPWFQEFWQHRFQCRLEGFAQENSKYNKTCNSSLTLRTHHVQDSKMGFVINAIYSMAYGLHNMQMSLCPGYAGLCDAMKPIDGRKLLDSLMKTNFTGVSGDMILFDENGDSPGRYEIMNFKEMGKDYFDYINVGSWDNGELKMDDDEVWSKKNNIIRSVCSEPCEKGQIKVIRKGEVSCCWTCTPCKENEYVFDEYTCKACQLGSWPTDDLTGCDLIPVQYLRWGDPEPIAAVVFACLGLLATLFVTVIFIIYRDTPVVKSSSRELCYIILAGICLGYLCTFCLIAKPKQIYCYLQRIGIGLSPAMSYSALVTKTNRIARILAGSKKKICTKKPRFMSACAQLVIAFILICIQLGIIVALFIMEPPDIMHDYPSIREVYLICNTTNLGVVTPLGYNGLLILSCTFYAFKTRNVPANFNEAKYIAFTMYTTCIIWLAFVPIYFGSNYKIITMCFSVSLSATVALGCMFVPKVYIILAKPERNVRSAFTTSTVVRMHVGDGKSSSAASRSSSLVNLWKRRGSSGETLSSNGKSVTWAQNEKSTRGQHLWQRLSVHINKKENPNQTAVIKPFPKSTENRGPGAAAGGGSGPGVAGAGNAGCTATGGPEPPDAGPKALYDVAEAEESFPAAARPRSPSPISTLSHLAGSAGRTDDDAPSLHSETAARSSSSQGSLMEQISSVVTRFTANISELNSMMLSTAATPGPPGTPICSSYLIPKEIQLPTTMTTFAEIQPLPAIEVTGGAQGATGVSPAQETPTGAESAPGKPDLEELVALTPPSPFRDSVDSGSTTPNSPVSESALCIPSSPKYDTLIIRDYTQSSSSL
The experiment in a line: mGluR5 assay on HEK-expressing rat mGluR5 (fluorescent cell based Ca2+ mobilization assay). Conditions: HEK-293 cells stably expressing rat mGluR5; no co-addition of glutamate; mean of at least three independent experiments in duplicate; read-out: Ca++ Flux (mean EC50). How it is done: Positive functional expression of HEK-293 cells stably expressing rat mGluR5 receptor was determined by measuring intracellular Ca^2+ changes using a Fluorometric Imaging Plate Reader (FLIPR, Molecular Devices, Sunnyvale, Calif.) in response to glutamate or selective known mGluR5 agonists and antagonists. Rat mGluR5RT-PCR products in HEK-293 cells were sequenced and found 100% identical to rat mGluR5Genbank reference sequence (NM_017012). HEK-293 cells expressing rmGluR5 were maintained in media containing DMEM, dialyzed Fetal Bovine Serum (10%), Glutamax™ (2 mM), Penicillin (100 units/ml), Streptomycin (100 μg/ml), Geneticin (100 μg/ml) and Hygromycin-B (40 μg/ml) at 37° C./5% CO2.
After one day of incubation, cells were washed with assay buffer containing: 142 mM NaCl, 6 mM KCl, 1 mM […], 1 mM CaCl2, 20 mM HEPES, 1 g/L glucose, 0.125 mM sulfinpyrazone, pH 7.4. After 60 min of loading with 4 uM Fluo-4 (TefLabs, Austin, Tex.), the cells were washed three times with 50 μl of PBS Buffer and resuspended in 45 μl of assay Buffer. The plates were then transferred to a Fluorometric Imaging Plate Reader (FLIPR, Molecular Devices, Sunnyvale, Calif.) for the assessment of intracellular calcium flux. After monitoring the baseline fluorescence for 10 seconds, increasing concentrations of representative compound (from 0.01 to 60 μM) of the present invention diluted in Assay Buffer (15 μl of 4× dilutions) was added to the cell. The final DMSO concentration in the assay was 0.3%. In each experiment, fluorescence was then monitored as a function of time for 3 minutes and the data analyzed using Microsoft Excel and GraphPad Prism. Each data point was also measured two times.
Under these experimental conditions, this HEK-rat mGluR5 cell line is able to directly detect positive allosteric modulators without the need of co-addition of glutamate or mGluR5 agonist.
The concentration-response curves of representative compounds of the present invention were generated using the Prism GraphPad software (Graph Pad Inc, San Diego, USA). The curves were fitted to a four-parameter logistic equation:
(Y=Bottom+(Top−Bottom)/(1+10̂((Log EC50−X)*Hill Slope)
allowing determination of EC50 values.
The Table 5 below represents the mean EC50 obtained from at least three independent experiments of selected molecules performed in duplicate.

T1 sequence (P31424 21-1203): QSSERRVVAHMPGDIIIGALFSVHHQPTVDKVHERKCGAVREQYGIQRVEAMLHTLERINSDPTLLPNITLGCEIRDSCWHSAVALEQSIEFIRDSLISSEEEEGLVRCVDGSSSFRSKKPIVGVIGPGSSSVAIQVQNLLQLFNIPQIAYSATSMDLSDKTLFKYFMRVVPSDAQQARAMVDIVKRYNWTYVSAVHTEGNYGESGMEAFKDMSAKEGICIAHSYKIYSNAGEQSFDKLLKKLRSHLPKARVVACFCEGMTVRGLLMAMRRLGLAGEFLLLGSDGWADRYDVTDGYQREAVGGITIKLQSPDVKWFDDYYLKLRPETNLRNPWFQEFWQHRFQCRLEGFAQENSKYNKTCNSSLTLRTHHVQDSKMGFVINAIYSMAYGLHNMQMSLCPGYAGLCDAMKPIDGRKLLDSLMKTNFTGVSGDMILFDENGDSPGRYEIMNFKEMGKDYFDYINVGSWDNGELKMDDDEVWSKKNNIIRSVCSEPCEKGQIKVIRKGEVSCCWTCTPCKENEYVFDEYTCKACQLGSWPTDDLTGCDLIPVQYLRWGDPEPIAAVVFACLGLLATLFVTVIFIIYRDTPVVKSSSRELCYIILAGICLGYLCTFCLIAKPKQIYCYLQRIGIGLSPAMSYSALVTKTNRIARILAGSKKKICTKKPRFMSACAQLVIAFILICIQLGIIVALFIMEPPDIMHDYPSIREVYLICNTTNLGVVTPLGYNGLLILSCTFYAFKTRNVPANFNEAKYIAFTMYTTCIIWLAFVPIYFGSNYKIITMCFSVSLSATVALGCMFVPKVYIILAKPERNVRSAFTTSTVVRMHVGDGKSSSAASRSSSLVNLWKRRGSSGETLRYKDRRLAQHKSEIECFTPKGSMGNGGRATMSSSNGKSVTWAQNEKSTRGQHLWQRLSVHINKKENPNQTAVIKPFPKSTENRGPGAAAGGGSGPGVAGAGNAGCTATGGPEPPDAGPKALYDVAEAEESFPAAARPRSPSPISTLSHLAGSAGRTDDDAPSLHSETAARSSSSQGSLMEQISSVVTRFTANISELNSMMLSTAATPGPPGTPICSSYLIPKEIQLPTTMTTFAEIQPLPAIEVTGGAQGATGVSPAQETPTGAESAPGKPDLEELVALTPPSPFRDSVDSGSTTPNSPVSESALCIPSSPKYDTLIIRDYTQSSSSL

`O=C(c1ccc(F)cc1)N1CCC[C@H](c2nc(Cc3ccc(F)cc3)no2)C1` [Example 1, {(S)-3-[3-(4-Fluoro-benzyl)-[1,2,4]oxadiazol-5-yl]-piperidin-1-yl}-(4-fluoro-phenyl)-methanone]: the IC50 at mGluR5 is less than 30 µM. Also, at rat mGluR5, the EC50 was less than 1 µM.
